The test system of data set [1] is T. gondii. The experiment in a line: T. gondii growth inhibition assay (TgRH-Luc:GFP-infected HFF cells). Format: cell-based. As to conditions: Toxoplasma gondii, 10 µM to 156 nM, Figure 2E. How it is done:
(§1) T. gondii growth inhibition assays: The T. gondii inhibition assay was described previously. Briefly, HFF cells were seeded onto white-sided, clear-bottom 96 well plates, grown to confluence, and then 5000 TgRH-Luc:GFP parasites were added to each well. At 24 hpi, compounds or DMSO were added. The growth of the parasites was determined by relative luminescence at 48 hpi using Promega Bright-Glo (Promega, Madison, WI, USA) substrate. Plates were read, and the percent inhibition of parasite growth was calculated as described above. Determination of -static versus -cidal activity was conducted as indicated above, with parasite growth quantified after 48 h of infection. Each sample was run in triplicate, and each experiment was repeated three times.

For data set [2], the system named is HFF cells. The experiment in a line: HFF cytotoxicity assay. Format: cell-based. As to the method:
HCT-8 and HFF cytotoxicity assays: Cytotoxicity of the compounds was determined against both confluent (the conditions of the infection assays) and growing HCT-8 and HFF host cells, as previously described. Cells were seeded into white-sided, clear-bottom 96-well plates and grown to either 40% or 100% confluency. Compounds were added to cells at various concentrations up to 100 µM in a final DMSO concentration of 0.5%. DMSO was run in parallel as a vehicle control. After 48 h, the viability of the cells was determined by either quantification of cellular ATP (Cell-Titer Glo cell viability assay; Promega, Madison WI, USA) or by MTT assay. Viability was determined 24 h after compound addition to HFF cells or 48 h after compound addition to HCT-8 cells or HepG2 cells. The percent cell growth was then calculated with the following formula: % Cell Growth = [RLUcompound/RLUDMSO] × 100. Samples were run in triplicate with two to three biological replicates.

The nature of data set [3]: in vitro. Format: in vitro ADME. The settings on record: plasma. As to the method: Plasma stability assay. The plasma stability assay was performed in duplicate by incubating each selected compound (1 µmol/L final concentration) in normal mouse (CD-1) or human plasma (Innovative Research, Novi, MI, USA) at 37 °C.
Data set [4] deals with Cp-NLuc. As to the kind of experiment: C. parvum -static versus -cidal washout assay. Format: cell-based, Cryptosporidium parvum. As to the method:
To determine -static versus -cidal activity, the infection assay was conducted as described, but infected cells were treated with compounds for 30 min up to 24 h. The compounds were removed after the designated times, and infection was quantified at 72 h post-infection. To determine the activity of the compounds against asexual and sexual stages of the parasite, compounds were added for 4 h windows at times corresponding to asexual or sexual development. Parasite proliferation was then determined at 72 h post-infection. For all assays, each sample was run in triplicate, and three biological replicates were performed.

In data set [5] the test system is TgRH-Luc:GFP. The experiment in a line: T. gondii -static versus -cidal washout assay. Format: cell-based, Toxoplasma gondii. As to conditions: for treatment time after which T. gondii did not recover (killing time): at EC90 15 µM, compound washed out, read 48 h post-infection. As to the method:
as §1

Data set [6] relates to C. parvum sporozoites. The experiment in a line: C. parvum invasion inhibition assay. As to conditions: 7.5 µM, 3 h infection, luciferase and IFA formats. Format: cell-based, Cryptosporidium parvum. How it is done: C. parvum excystation and invasion assays: Oocyst excystation rates in the presence of compounds were determined as previously described. The C. parvum invasion inhibition assays were conducted in two formats. In the first format, described previously, HCT-8 cells were seeded on glass slides (CELLTREAT Scientific Product, Pepperell, MA, USA) and allowed to grow to confluence. Oidiolactone A was added to the cells for one hour. TrtE and DMSO were run in parallel as positive and negative controls, respectively. The cell monolayers were then infected with 1.2 × 10^6 wild-type C. parvum oocysts. After 3 h of incubation at 37 °C, the slides were washed five times with 111 mM D-galactose, fixed with 4% paraformaldehyde, and permeabilized with 0.25% Triton-X. C. parvum sporozoites were detected with rabbit anti-gp40 [39] and Alexa Fluor 594 goat anti-rabbit antibodies. The HCT-8 cell nuclei were stained with 0.09 mM Hoechst. Slides were coded to enable unbiased counting, and sporozoites from at least 10 randomly selected fields were counted in each sample at 100× magnification (Zeiss® Axioscope 5). The percentage of invaded parasites was determined using the following equation: % Invaded parasites = [parasitescompound/parasitesDMSO] × 100. This experiment was run in duplicate with two biological replicates. […]

The test system of data set [7] is C. parvum. As to the kind of experiment: Inhibition of C. parvum infection in IFNγ −/− mice. Format: in vivo, C57BL/6 IFNγ −/− mice. The settings on record: 4 mg/kg oral gavage every 12 h, four doses, days 5 and 6 post-infection, AUC of RLUs/gram feces. How it is done:
Inhibition of C. parvum infection in IFN-gamma knock-out (IFNγ −/−) mice: Twelve female C57BL/6 IFNγ −/− mice (4 weeks old) from the Jackson Laboratory were housed in a controlled environment with a 12 h light/dark cycle and access to food and water ad libitum. Cp-NLuc oocysts were isolated from infected mouse feces and purified using a sodium chloride density gradient. Mice were inoculated via oral gavage with a suspension of 10^4 oocysts in 50 µL sterile PBS. On days 5 and 6 post-infection, mice were treated with 4 mg/kg of oidiolactone A or DMSO vehicle control every 12 h for a total of four doses (6 mice per treatment group). Fecal samples were collected daily and stored at −20 °C until analysis. Feces were homogenized in a lysis buffer solution, centrifuged, and the supernatant was incubated with Nano-Glo® substrate in a 96-well plate, as previously described. Luminescence was measured in a microplate reader immediately after substrate addition. Oocyst shedding, measured in RLUs/gram of feces, was plotted over time, and the area under the curve was determined for each mouse. Mice were sacrificed 14 days post-infection, and serum was collected for biochemical analysis. Biochemical analyses were performed using the Beckman Coulter AU480 automated analyzer (Beckman Coulter, Brea, CA, USA) at the Clinical Pathology Laboratory, Veterinary Medical Center, University of Minnesota.

The structures appear in SMILES notation. Entries after “also recorded” stand apart in the source; their conditions may differ. Read-outs that look alike come from different tables or passages of the source. Bounds are passed on as bounds.

What is called EC50 is the concentration needed to bring the measured effect to its halfway point. Lower therefore signals higher potency in that assay. As a reminder, the EC90 is the concentration at which the effect reaches the 90% level. Low values mean an effect from little substance, high ones a need for much substance. Take `CO[C@H]1OC(=O)C=C2[C@@]13O[C@@H]3[C@H]1OC(=O)[C@@]3(C)CCC[C@@]2(C)[C@@H]13` [compound 1, oidiolactone A]: the EC50 in data set [1] is 1.63 µM. Besides, the “TC50 HFF (confluent)” value in data set [2] (confluent) is on record as over 30 µM. Moreover, in data set [2] (confluent HFF, conditions of the infection assay, 24 h, cellular ATP), the “toxicity to host cells (no toxicity up to)” value is over 100 µM. In data set [2] (sub-confluent), the “cytotoxicity against sub-confluent HFF” value was “no cytotoxicity observed”. In addition, the half-life at 1 µmol/L in data set [3] (CD-1, mouse, 1 µmol/L, 37 °C, mean ± SD, read-out: Mouse Plasma Stability t½) is 1.76 ± 0.0283 h; in data set [3] (CD-1, mouse, discussion, read-out: half-life in mouse blood plasma) it was under 2 h; in data set [3] (human, 37 °C, mean ± SD, read-out: Human Plasma Stability t½), 0.2917 ± 0.00167 h. For the same compound, the concentration for an effect of 90% (EC90) in data set [4] (Cryptosporidium parvum) came to 7.5 µM; in data set [5] (Toxoplasma gondii), 15 µM. The “treatment time after which C. parvum did not recover (killing time)” value in data set [4] (at EC90 7.5 µM, compound washed out, read 72 h post-infection) is 8 to 12 h. Further, the “treatment time after which T. gondii did not recover (killing time)” value in data set [5] (listed as Oidiolactone A) is at most 24 h; in data set [5] (listed as oidiolactone A), 8 to 12 h. For the same compound, the “effect on parasite invasion” value in data set [6] was “no effect; also recorded: did not exhibit any effect”. Moreover, the “reduction in C. parvum oocyst shedding” value in data set [7] is given as 70%.

These data come from publication PMC12654037, “Norditerpene Natural Products from Subterranean Fungi with Anti-Parasitic Activity” (Microorganisms, 2025).
